Data reported in patent US12077503B2, “Substituted cyclic amides and their use as herbicides” (FMC CORPORATION, priority 2015, dated 2024).
Where two headings read alike, the source gives them in different places.

Experiments:
Assay in all cases: Test A postemergence
Format in all cases: in vivo
[1] = tested on: blackgrass (Alopecurus myosuroides); settings: Alopecurus myosuroides, post-emergence, 240 h; for pest or weed control at 125 g/ha: 125 g ai/ha; for pest or weed control at 500 g/ha: 500 g ai/ha, visual injury, approx. 10 d
In short: (§1)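 Preemergence soil spray on seeded pots or post-emergence spray on 1–2 leaf plants, in loam–sand blend. Greenhouse ~10 d. Visual rating 0–100 against untreated plants.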

Kochia (Kochia scoparia) = settings: Bassia scoparia, post-emergence, 240 h; for pest or weed control at 125 g/ha: 125 g ai/ha; for pest or weed control at 500 g/ha: 500 g ai/ha, visual injury, approx. 10 d
In short: as §1

[2] = tested on: giant foxtail (Setaria faberii); settings: Setaria faberi, post-emergence, 240 h; for pest or weed control at 125 g/ha: 125 g ai/ha; for pest or weed control at 500 g/ha: 500 g ai/ha, visual injury, approx. 10 d
In short: as §1

[3] = tested on: Galium (catchweed bedstraw, Galium aparine); settings: Galium, post-emergence, 240 h; for pest or weed control at 125 g/ha: 125 g ai/ha; for pest or weed control at 500 g/ha: 500 g ai/ha, visual injury, approx. 10 d
In short: as §1

[4] = tested on: ragweed (common ragweed, Ambrosia elatior); settings: Ambrosia artemisiifolia, post-emergence, 240 h; for pest or weed control at 125 g/ha: 125 g ai/ha; for pest or weed control at 500 g/ha: 500 g ai/ha, visual injury, approx. 10 d
In short: as §1

[5] = tested on: barnyardgrass (Echinochloa crus-galli); settings: Echinochloa crus-galli, post-emergence, 240 h; for pest or weed control at 125 g/ha: 125 g ai/ha; for pest or weed control at 500 g/ha: 500 g ai/ha, visual injury, approx. 10 d
In short: as §1

[6] = postemergence, visual injury after approximately 10 d, 0 to 100 scale (0 no effect, 100 complete control), read-out: Plant response rating, Blackgrass
[7] = postemergence, visual injury after approximately 10 d, 0 to 100 scale (0 no effect, 100 complete control), read-out: Plant response rating, Kochia
[8] = postemergence, visual injury after approximately 10 d, 0 to 100 scale (0 no effect, 100 complete control), read-out: Plant response rating, Foxtail, Giant
[9] = postemergence, visual injury after approximately 10 d, 0 to 100 scale (0 no effect, 100 complete control), read-out: Plant response rating, Galium
[10] = postemergence, visual injury after approximately 10 d, 0 to 100 scale (0 no effect, 100 complete control), read-out: Plant response rating, Ragweed
[11] = postemergence, visual injury after approximately 10 d, 0 to 100 scale (0 no effect, 100 complete control), read-out: Plant response rating, Barnyardgrass
[12] = Postemergence, visual rating about 10 d after treatment, read-out: Blackgrass plant response rating (0 to 100 scale)
[13] = Postemergence, 0 to 100 scale (0 no effect, 100 complete control), read-out: Plant response rating, Blackgrass
[14] = Postemergence, visual rating about 10 d after treatment, read-out: Kochia plant response rating (0 to 100 scale)
[15] = Postemergence, 0 to 100 scale (0 no effect, 100 complete control), read-out: Plant response rating, Kochia
[16] = Postemergence, visual rating about 10 d after treatment, read-out: Foxtail, Giant plant response rating (0 to 100 scale)
[17] = Postemergence, 0 to 100 scale (0 no effect, 100 complete control), read-out: Plant response rating, Foxtail, Giant
[18] = Postemergence, visual rating about 10 d after treatment, read-out: Galium plant response rating (0 to 100 scale)
[19] = Postemergence, 0 to 100 scale (0 no effect, 100 complete control), read-out: Plant response rating, Galium
[20] = Postemergence, visual rating about 10 d after treatment, read-out: Ragweed plant response rating (0 to 100 scale)
[21] = Postemergence, 0 to 100 scale (0 no effect, 100 complete control), read-out: Plant response rating, Ragweed
[22] = Postemergence, visual rating about 10 d after treatment, read-out: Barnyardgrass plant response rating (0 to 100 scale, 0 no effect, 100 complete control)
[23] = Postemergence, 0 to 100 scale (0 no effect, 100 complete control), read-out: Plant response rating, Barnyardgrass

Row | Compound | pest or weed control at 125 g/ha [1, 6] [%] | pest or weed control at 125 g/ha (Kochia (Kochia scoparia); [7]) [%] | pest or weed control at 125 g/ha [2, 8] [%] | pest or weed control at 125 g/ha [3, 9] [%] | pest or weed control at 125 g/ha [4, 10] [%] | pest or weed control at 125 g/ha [5, 11] [%] | pest or weed control at 125 g/ha [1, 12] [%] | pest or weed control at 500 g/ha [1, 13] [%] | pest or weed control at 125 g/ha (Kochia (Kochia scoparia); [14]) [%] | pest or weed control at 500 g/ha (Kochia (Kochia scoparia); [15]) [%] | pest or weed control at 125 g/ha [2, 16] [%] | pest or weed control at 500 g/ha [2, 17] [%] | pest or weed control at 125 g/ha [3, 18] [%] | pest or weed control at 500 g/ha [3, 19] [%] | pest or weed control at 125 g/ha [4, 20] [%] | pest or weed control at 500 g/ha [4, 21] [%] | pest or weed control at 125 g/ha [5, 22] [%] | pest or weed control at 500 g/ha [5, 23] [%]
1 | CN1C[C@H](c2ccc(C#N)cc2)[C@@H](C(=O)Nc2cccc(F)c2F)C1=O (racemic) [Compound 775] | 0 | 40 | 60 | 40 | 20 | 50 | – | – | – | – | – | – | – | – | – | – | – | –
2 | CN1C[C@H](c2cccc(S(C)(=O)=O)c2)[C@@H](C(=O)Nc2cccc(F)c2F)C1=O (racemic) [Compound 777] | 0 | 0 | 30 | 0 | 0 | 70 | – | – | – | – | – | – | – | – | – | – | – | –
3 | CO[C@]1(C(=O)Nc2cccc(F)c2F)C(=O)N(C)C[C@@H]1c1ccc(C(F)(F)F)cc1 (racemic) [Compound 1334] | – | – | – | – | – | – | 0 | 0 | 0 | 0 | 0 | 50 | 50 | 50 | 0 | 20 | 0 | 50
4 | O=C1NC[C@H](c2cc(C(F)(F)F)ccn2)[C@H]1C(=O)Nc1cccc(F)c1F (racemic) [Compound 1376] | – | – | – | – | – | – | 20 | 70 | 0 | 20 | 80 | 80 | 0 | 30 | 0 | 0 | 90 | 90
5 | COc1ccc([C@H]2CNC(=O)[C@@H]2C(=O)Nc2ccccc2S(C)(=O)=O)cc1F [Compound 721] | 0 | 0 | 0 | 20 | 0 | 10 | – | – | – | – | – | – | – | – | – | – | – | –
6 | O=C1NC[C@H](c2ccc(C3CC3)cc2)[C@H]1C(=O)Nc1ccccc1F [Compound 727] | 30 | 0 | 40 | 0 | 0 | 80 | – | – | – | – | – | – | – | – | – | – | – | –
7 | Cc1ccc([C@H]2CN(C)C(=O)[C@@H]2C(=O)Nc2cccc(F)c2F)c(F)c1 [Compound 730] | 50 | 70 | 90 | 50 | 20 | 100 | – | – | – | – | – | – | – | – | – | – | – | –
8 | Cc1ccc([C@H]2CN(C)C(=O)[C@@H]2C(=O)Nc2ccccc2S(C)(=O)=O)cc1C [Compound 734] | 20 | 0 | 90 | 30 | 10 | 90 | – | – | – | – | – | – | – | – | – | – | – | –
9 | CCc1cc(CC)cc([C@H]2CN(C)C(=O)[C@@H]2C(=O)Nc2ccccc2F)c1 [Compound 735] | 50 | 30 | 90 | 40 | 0 | 90 | – | – | – | – | – | – | – | – | – | – | – | –
10 | CCc1cc(CC)cc([C@H]2CN(C)C(=O)[C@@H]2C(=O)Nc2cccc(F)c2F)c1 [Compound 736] | 60 | 20 | 90 | 50 | 0 | 90 | – | – | – | – | – | – | – | – | – | – | – | –
11 | CN1C[C@H](c2ccc(F)c(OC(F)(F)C(F)F)c2)[C@@H](C(=O)Nc2ccccc2F)C1=O [Compound 740] | 30 | 40 | 90 | 50 | 0 | 90 | – | – | – | – | – | – | – | – | – | – | – | –
12 | CN1C[C@H](c2cccc(C(F)(F)F)c2)[C@@H](C(=O)Nc2ccccc2C2CC2)C1=O [Compound 749] | 0 | 0 | 0 | 0 | 0 | 0 | – | – | – | – | – | – | – | – | – | – | – | –
13 | CN1C[C@H](c2nccs2)[C@@H](C(=O)Nc2ccccc2F)C1=O [Compound 773] | 0 | – | 0 | 0 | 0 | 0 | – | – | – | – | – | – | – | – | – | – | – | –
14 | O=C1NC[C@H](c2ccc(OC(F)F)cc2)[C@H]1C(=O)Nc1ccc(F)cc1F [Compound 1325] | – | – | – | – | – | – | – | – | 70 | 80 | 80 | 90 | 80 | 90 | 0 | 0 | 90 | 90
15 | N#Cc1ccc(NC(=O)C2C(=O)NCC2c2ccccc2)cc1 (stereo not drawn) [Compound 1355] | – | – | – | – | – | – | – | – | – | – | 0 | 0 | – | – | – | – | 0 | 0
16 | O=C1NCC(c2ccccc2)C1C(=O)Nc1cccnc1 (stereo not drawn) [Compound 1356] | – | – | – | – | – | – | – | – | – | – | 0 | 0 | – | – | – | – | 0 | 0
17 | O=C1NCC(c2ccccc2)C1C(=O)Nc1ccccc1Oc1ccccc1 (stereo not drawn) [Compound 1357] | – | – | – | – | – | – | – | – | – | – | 0 | 0 | – | – | – | – | 0 | 0
18 | O=C1NCC(c2ccccc2)C1C(=O)Nc1ccccc1 (stereo not drawn) [Compound 1358] | – | – | – | – | – | – | – | – | – | – | 0 | 0 | – | – | – | – | 0 | 0
19 | CN1C[C@H](c2ccc(C(F)(F)F)nc2)[C@@H](C(=O)Nc2cccc(F)c2F)C1=O [Compound 1372] | – | – | – | – | – | – | 50 | 70 | 70 | 80 | 90 | 90 | 60 | 70 | 60 | 60 | – | –
20 | CN1C[C@H](c2ccc(C(F)(F)F)cc2)[C@@H](C(=O)Nc2cccc(F)c2C#N)C1=O [Compound 1380] | – | – | – | – | – | – | 40 | 60 | – | – | 90 | 90 | 50 | 50 | 40 | 50 | 60 | 80
